Holding throughout (type): toxicity, cell-based
Data set [1] deals with HEK-293T. The data set can be described thus: Incucyte cell viability with HEK293T. Particulars: human, 10 µM, compound concentration 10 uM.
Data set [2] deals with Fibroblast. As to the kind of experiment: Incucyte cell viability with human fibroblast. As to conditions: 10 µM, compound concentration 10 uM.
Data set [3] deals with U2OS. As to the kind of experiment: Incucyte cell viability with U2OS. As to conditions: human, 10 µM, compound concentration 10 uM.
Note: unitless GR value; below 1 slowed growth and below 0 cell loss.

Consider `O=C(Nc1cccc(C(F)(F)F)c1)c1cccc(-n2cc(-c3ccco3)nn2)c1`, for which the “Growth Rate” value was 0.68 in data set [1] (6 h, replicate number 1); 0.56 in data set [1] (6 h, replicate number 2); 0.8 in data set [1] (12 h, replicate number 1); 1 in data set [1] (12 h, replicate number 2); 0.67 in data set [1] (18 h, replicate number 1); 0.76 in data set [1] (24 h, replicate number 1). Moreover, the “Growth Rate” value was -0.94 in data set [2] (0 h, replicate number 2); 0.82 in data set [2] (6 h, replicate number 1); 0.97 in data set [2] (24 h, replicate number 1); 0.15 in data set [3] (0 h, replicate number 2); 0.72 in data set [3] (6 h, replicate number 1); 0.78 in data set [3] (12 h, replicate number 1). In addition, the “Growth Rate” value in data set [3] (12 h, replicate number 2) is reported as 0.81; in data set [3] (18 h, replicate number 2) it was 0.95; in data set [3] (24 h, replicate number 1) it was 0.9.
With `Cc1ccc2c(NS(=O)(=O)c3ccccc3Cl)cccc2c1Oc1ncccc1-c1ccnc(N[C@H]2CCCNC2)n1.Cl`, the “Growth Rate” value in data set [1] (6 h, replicate number 1) came out at 0.95; in data set [1] (12 h, replicate number 1), 0.33; in data set [1] (12 h, replicate number 2), 0.52; in data set [1] (18 h, replicate number 1) it was 0.5; in data set [1] (18 h, replicate number 2) it was 0.6; in data set [1] (24 h, replicate number 1), 0.48. Also, the “Growth Rate” value in data set [1] (24 h, replicate number 2) is listed as 0.55; in data set [2] (0 h, replicate number 1) it was -1; in data set [2] (6 h, replicate number 1) it was 0.69; in data set [2] (12 h, replicate number 1) it was 0.21; in data set [2] (12 h, replicate number 2) it was 0.45; in data set [2] (18 h, replicate number 1), 0.34. In addition, the “Growth Rate” value in data set [2] (18 h, replicate number 2) is recorded as 0.38; in data set [2] (24 h, replicate number 1) it was 0.3; in data set [2] (24 h, replicate number 2), 0.49; in data set [3] (0 h, replicate number 1), 0.22; in data set [3] (0 h, replicate number 2), 0.32; in data set [3] (6 h, replicate number 1) it was 0.4. For the same compound, the “Growth Rate” value in data set [3] (6 h, replicate number 2) is reported as 0.75; in data set [3] (12 h, replicate number 1) it was 0.68; in data set [3] (12 h, replicate number 2), 0.62; in data set [3] (18 h, replicate number 1) it was 0.69; in data set [3] (18 h, replicate number 2), 0.57; in data set [3] (24 h, replicate number 1) it was 0.55. The “Growth Rate” value in data set [3] (24 h, replicate number 2) is on record as 0.58.
As to `CC1(C)C[C@@H]1C(=O)N/C(=C\CCCCSC[C@H](N)C(=O)O)C(=O)O` [CILASTATIN], the “Growth Rate” value in data set [1] (0 h, replicate number 1) is on record as -0.01; in data set [1] (0 h, replicate number 2), 0.73; in data set [1] (6 h, replicate number 1), 0.74; in data set [1] (6 h, replicate number 2), 0.55; in data set [1] (12 h, replicate number 2) it was 0.9; in data set [2] (0 h, replicate number 2) it was -0.91. Also, the “Growth Rate” value in data set [2] (6 h, replicate number 2) is given as 0.61; in data set [2] (24 h, replicate number 2), 0.83; in data set [3] (0 h, replicate number 2), 0.88; in data set [3] (6 h, replicate number 2) it was 0.81; in data set [3] (12 h, replicate number 1) it was 0.97; in data set [3] (12 h, replicate number 2), 0.74. In addition, the “Growth Rate” value in data set [3] (18 h, replicate number 1) is 0.9; in data set [3] (18 h, replicate number 2), 0.82; in data set [3] (24 h, replicate number 1) it was 0.9; in data set [3] (24 h, replicate number 2) it was 0.79.
In the case of `CN(C)CCOc1ccc(/C(=C(/CCCO)c2ccccc2)c2ccc(O)cc2)cc1`, the “Growth Rate” value is recorded as 0.71 in data set [1] (6 h, replicate number 2); 0.55 in data set [2] (0 h, replicate number 1); -0.4 in data set [2] (0 h, replicate number 2); 0.02 in data set [2] (24 h, replicate number 1); -0.67 in data set [3] (0 h, replicate number 2); 0.76 in data set [3] (6 h, replicate number 1). Further, the “Growth Rate” value in data set [3] (18 h, replicate number 1) was determined as 1.
As for `CC(C)(C)S(=O)(=O)c1ccc2nccc(Nc3n[nH]c4ccc(F)cc34)c2c1`, the “Growth Rate” value in data set [1] (6 h, replicate number 1) is -0.03; in data set [1] (6 h, replicate number 2), -0.05; in data set [1] (12 h, replicate number 1), -0.18; in data set [1] (12 h, replicate number 2), -0.13; in data set [1] (18 h, replicate number 1) it was -0.12; in data set [1] (18 h, replicate number 2), -0.14. For the same compound, the “Growth Rate” value in data set [1] (24 h, replicate number 1) was -0.13; in data set [1] (24 h, replicate number 2), -0.15; in data set [2] (6 h, replicate number 2) it was 0.54; in data set [2] (12 h, replicate number 1), 0.85; in data set [2] (12 h, replicate number 2) it was 0.34; in data set [2] (18 h, replicate number 1), 0.67. In addition, the “Growth Rate” value in data set [2] (18 h, replicate number 2) was 0.31; in data set [2] (24 h, replicate number 1) it was 0.45; in data set [2] (24 h, replicate number 2) it was 0.22; in data set [3] (0 h, replicate number 1) it was -0.83; in data set [3] (6 h, replicate number 1), 0.95; in data set [3] (6 h, replicate number 2) it was 0.2. Also, the “Growth Rate” value in data set [3] (12 h, replicate number 1) is listed as 0.21; in data set [3] (12 h, replicate number 2), 0.12; in data set [3] (18 h, replicate number 1), 0.1; in data set [3] (18 h, replicate number 2), -0.02; in data set [3] (24 h, replicate number 1) it was 0.06; in data set [3] (24 h, replicate number 2), -0.07.

The values above are taken from ChEMBL document CHEMBL5303304, “EUbOPEN Chemogenomics Library - IncuCyte” (2023).
